From patent publication US20100311729A1, “Substituted imidazopyridazines and pyrrolopyrimidines as lipid kinase inhibitors” (priority 2007, published 2010)
Where two headings read alike, the source gives them in different places.

What was measured:
Assay type in all cases: biochemical
PI3K alfa = molecular target: T1, PI3K alfa (Homo sapiens, UniProt P42336); assay: PI3 kinase assay (Kinase-Glo luminescence), PI3K alfa
T1 construct: for the p110-a subunit (with a deletion of the first 20 amino acids); His tag (C); made in house; host or cells: baculovirus; Tn5 (Trichoplusia ni) or TiniPro insect cells
T1 sequence (P42336 with tags, fused parts or gaps limits assumed): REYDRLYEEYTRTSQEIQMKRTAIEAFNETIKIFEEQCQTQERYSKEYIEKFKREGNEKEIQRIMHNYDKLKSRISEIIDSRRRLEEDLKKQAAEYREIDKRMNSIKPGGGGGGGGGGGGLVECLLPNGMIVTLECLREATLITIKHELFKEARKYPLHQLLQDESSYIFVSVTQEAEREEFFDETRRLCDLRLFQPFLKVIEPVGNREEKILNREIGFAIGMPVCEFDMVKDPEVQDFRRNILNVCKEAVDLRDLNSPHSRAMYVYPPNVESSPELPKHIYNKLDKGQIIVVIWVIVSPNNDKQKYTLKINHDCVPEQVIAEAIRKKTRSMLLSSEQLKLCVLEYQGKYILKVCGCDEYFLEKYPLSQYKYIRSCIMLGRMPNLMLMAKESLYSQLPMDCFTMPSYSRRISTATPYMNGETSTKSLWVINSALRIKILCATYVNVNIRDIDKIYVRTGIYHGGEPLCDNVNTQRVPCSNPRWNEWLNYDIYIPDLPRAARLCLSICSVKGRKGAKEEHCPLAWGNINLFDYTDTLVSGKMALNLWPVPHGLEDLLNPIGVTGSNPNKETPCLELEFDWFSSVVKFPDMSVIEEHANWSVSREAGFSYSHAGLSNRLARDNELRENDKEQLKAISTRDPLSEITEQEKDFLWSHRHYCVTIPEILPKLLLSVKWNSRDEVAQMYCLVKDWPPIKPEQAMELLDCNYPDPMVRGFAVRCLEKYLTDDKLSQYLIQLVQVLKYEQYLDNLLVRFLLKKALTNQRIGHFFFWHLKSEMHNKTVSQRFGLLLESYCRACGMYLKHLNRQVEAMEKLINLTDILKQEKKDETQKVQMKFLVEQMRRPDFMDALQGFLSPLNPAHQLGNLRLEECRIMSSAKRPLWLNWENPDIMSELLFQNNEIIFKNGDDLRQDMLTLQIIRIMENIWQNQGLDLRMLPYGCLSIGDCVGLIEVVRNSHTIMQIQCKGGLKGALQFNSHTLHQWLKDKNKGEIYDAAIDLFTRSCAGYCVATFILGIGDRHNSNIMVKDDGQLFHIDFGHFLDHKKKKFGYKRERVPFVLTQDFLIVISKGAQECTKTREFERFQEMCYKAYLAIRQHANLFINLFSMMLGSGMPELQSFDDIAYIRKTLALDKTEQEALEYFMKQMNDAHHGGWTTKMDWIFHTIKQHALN
Procedure: (§1) In a more preferred assay, the kinase reaction is performed in a final volume of 10 μL per well of a low volume non binding CORNING, 384 well black plate (Cat. No. #3676). The final concentrations of ATP and phosphatidyl inositol (PI) in the assay are 1 μM and 10 μg/mL respectively. The reaction is started by the addition of ATP.
(§2) The components of the assay are added per well as follows:
(§3) 50 nL test compounds in 90% DMSO per well, in columns 1-20, 8 concentrations (1/3 and 1/3.33 serial dilution step) in single. • Low control: 50 nL of 90% DMSO in half the wells of columns 23-24 (0.45% in final). • High control: 50 nL of reference compound (e.g. compound of Example 7 in WO 2006/122806, incorporated by reference hereinin that regard) in the other half of columns 23-24 (2.5 μM in final). • Standard: 50 nL of reference compound as just mentioned diluted as the test compounds in columns 21-22 • 20 mL ‘buffer’ are prepared per assay: • 200 μL of 1M TRIS HCl pH7.5 (10 mM in final) • 60 μL of 1M MgCl2 (3 mM in final) • 500 μL of 2M NaCl (50 mM in final) • 100 μL of 10% CHAPS (0.05% in final) • 200 μL of 100 mM DTT (1 mM in final) • 18.94 mL of nanopure water • 10 mL ‘PI’ are prepared per assay: • 200 μL of 1 mg/ml L-alpha-Phosphatidylinositol (Liver Bovine, Avanti Polar Lipids Cat. No. 840042C MW=909.12) prepared in 3% OctylGlucoside (10 μg/ml in final) • 9.8 mL of ‘buffer’ • 10 mL ‘ATP’ are prepared per assay: • 6.7 μL of 3 mM stock of ATP giving a final concentration of 1 μM per well • 10 mL of ‘buffer’ • 2.5 mL of each PI3K construct are prepared per assay in ‘PI’ with the following final concentration : • 10 nM PI3K alfa B-1075 • 25 nM beta BV-949 • 10 nM delta BV-1060 • 150 nM gamma BV-950 • 5 μL of ‘PI/PI3K’ are added per well. • 5 μl ‘ATP’ are added per well to start the reaction. • The plates are then incubated at room temperature for 60 minutes (alfa, beta, delta) or 120 minutes (gamma). • The reaction is terminated by the addition of 10 μL Kinase-Glo (Promega Cat. No. #6714). • The assay plates are read after 10 minutes in Synergy 2 reader (BioTek, Vermont USA) with an integration time of 100 milliseconds and sensitivity set to 191. • Output : The High control is around 60'000 counts and the Low control is 30'000 or lower • This luminescence assay gives a useful Z′ ratio between 0.4 and 0.7
(§4) […] is determined by a four parameter curve fitting routine that comes aloneg with “excel fit”. A 4 Parameter logistic equation is used to calculate IC50 values (IDBS XLfit) of the percentage inhibition of each compound at 8 concentrations (usually 10, 3.0, 1.0, 0.3, 0.1, 0.030, 0.010 and […]). Alternatively, IC50 values are calculated using idbsXLfit model 204, which is a 4 parameter logistic model.
(§5) Testing with the following kinases in the test system mentioned above, with the kinases given in the following tables, the following IC 50 data can be obtained: […]

PI3K delta = molecular target: T2, PI3K delta (Homo sapiens, UniProt O00329); assay: PI3 kinase assay (Kinase-Glo luminescence), PI3K delta; settings: Enzymatic Data; read-out: PI3K delta IC50 [umol]
T2 construct: for the full-length p110-d subunit are generated and fused by overlapping PCR; His tag (C); made in house; host or cells: baculovirus; Tn5 (Trichoplusia ni) or TiniPro insect cells
T2 sequence (O00329 with tags, fused parts or gaps limits assumed): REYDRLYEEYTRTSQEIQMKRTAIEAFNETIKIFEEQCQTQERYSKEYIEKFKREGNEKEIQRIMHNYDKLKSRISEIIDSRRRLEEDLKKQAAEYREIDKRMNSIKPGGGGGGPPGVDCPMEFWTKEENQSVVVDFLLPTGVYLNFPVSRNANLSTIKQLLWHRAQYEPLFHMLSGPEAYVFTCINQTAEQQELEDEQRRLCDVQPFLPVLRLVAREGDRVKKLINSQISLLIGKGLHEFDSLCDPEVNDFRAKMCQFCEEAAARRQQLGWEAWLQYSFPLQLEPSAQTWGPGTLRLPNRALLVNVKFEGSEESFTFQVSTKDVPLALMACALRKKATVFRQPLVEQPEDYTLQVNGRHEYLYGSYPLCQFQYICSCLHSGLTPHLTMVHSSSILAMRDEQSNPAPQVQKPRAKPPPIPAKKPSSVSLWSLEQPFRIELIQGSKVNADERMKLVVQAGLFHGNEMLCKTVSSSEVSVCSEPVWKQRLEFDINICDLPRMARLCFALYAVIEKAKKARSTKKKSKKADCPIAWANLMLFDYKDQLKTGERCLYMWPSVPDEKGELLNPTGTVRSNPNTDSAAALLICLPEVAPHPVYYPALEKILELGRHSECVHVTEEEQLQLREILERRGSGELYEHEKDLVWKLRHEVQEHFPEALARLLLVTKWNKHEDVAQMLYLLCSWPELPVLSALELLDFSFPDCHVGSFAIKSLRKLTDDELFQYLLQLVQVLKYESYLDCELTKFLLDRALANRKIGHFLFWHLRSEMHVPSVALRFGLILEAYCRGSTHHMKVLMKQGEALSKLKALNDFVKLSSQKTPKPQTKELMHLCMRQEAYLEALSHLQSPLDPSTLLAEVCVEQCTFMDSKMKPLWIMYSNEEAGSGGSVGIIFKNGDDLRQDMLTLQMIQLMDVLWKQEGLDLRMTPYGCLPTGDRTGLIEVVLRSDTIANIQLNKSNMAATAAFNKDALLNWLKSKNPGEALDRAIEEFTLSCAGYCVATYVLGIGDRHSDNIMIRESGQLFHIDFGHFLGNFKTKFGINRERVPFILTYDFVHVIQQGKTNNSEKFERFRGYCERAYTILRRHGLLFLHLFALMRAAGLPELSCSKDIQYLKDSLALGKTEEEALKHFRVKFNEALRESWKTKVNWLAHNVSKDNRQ
Procedure: as §1, §2, §3, §4, §5

PI3K beta = molecular target: T3, PI3K beta (Homo sapiens, UniProt P42338); assay: PI3 kinase assay (Kinase-Glo luminescence), PI3K beta; settings: Enzymatic Data; read-out: PI3K beta IC50 [umol]
T3 construct: for the full-length p110-b subunit are generated and fused by overlapping PCR; His tag (C); made in house; host or cells: baculovirus; Tn5 (Trichoplusia ni) or TiniPro insect cells
T3 sequence (P42338 with tags, fused parts or gaps limits assumed): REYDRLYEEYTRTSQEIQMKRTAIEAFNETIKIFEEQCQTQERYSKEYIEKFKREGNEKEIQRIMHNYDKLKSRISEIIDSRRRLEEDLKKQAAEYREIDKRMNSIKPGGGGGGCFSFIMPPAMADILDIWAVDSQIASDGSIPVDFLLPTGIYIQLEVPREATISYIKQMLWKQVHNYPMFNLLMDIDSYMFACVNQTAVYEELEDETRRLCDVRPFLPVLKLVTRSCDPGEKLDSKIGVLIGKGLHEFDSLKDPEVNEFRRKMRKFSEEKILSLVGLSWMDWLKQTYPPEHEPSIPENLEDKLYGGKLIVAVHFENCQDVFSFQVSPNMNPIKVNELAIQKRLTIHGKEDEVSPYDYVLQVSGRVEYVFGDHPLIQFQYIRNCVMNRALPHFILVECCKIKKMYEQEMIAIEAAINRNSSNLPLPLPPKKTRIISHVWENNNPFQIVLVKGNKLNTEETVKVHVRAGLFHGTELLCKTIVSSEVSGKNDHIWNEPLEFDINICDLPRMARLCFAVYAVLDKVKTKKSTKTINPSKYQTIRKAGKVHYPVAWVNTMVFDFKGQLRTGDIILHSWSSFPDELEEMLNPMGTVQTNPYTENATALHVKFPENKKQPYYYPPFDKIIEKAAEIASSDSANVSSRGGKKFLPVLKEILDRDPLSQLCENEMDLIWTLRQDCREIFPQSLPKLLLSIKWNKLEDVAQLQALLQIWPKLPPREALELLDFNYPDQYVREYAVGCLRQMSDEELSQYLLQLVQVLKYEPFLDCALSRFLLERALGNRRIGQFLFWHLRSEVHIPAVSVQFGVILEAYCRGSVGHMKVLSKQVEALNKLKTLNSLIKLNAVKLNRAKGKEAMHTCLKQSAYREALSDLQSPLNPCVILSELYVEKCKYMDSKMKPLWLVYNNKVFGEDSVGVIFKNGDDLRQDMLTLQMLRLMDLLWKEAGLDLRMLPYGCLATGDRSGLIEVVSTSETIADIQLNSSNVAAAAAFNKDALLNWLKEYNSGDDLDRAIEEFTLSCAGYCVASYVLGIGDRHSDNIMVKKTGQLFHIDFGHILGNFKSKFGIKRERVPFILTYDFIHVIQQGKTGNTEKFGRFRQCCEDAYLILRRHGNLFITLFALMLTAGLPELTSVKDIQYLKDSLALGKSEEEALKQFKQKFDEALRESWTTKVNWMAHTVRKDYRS
Procedure: as §1, §2, §3, §4, §5

PI3K gamma = molecular target: T4, PI3K gamma (Homo sapiens, UniProt P48736); assay: PI3 kinase assay (Kinase-Glo luminescence), PI3K gamma; settings: Enzymatic Data; read-out: PI3K gamma IC50 [umol]
T4 construct: PI3Kγ BV-950 p110g(D144aa)-C-Term His Tag; His tag (C); made in house; host or cells: construct from the Roger Williams lab (MRC LMB) in pVL1393; baculovirus; Tn5 (Trichoplusia ni) or TiniPro insect cells
T4 sequence (P48736 144-1102 limits assumed): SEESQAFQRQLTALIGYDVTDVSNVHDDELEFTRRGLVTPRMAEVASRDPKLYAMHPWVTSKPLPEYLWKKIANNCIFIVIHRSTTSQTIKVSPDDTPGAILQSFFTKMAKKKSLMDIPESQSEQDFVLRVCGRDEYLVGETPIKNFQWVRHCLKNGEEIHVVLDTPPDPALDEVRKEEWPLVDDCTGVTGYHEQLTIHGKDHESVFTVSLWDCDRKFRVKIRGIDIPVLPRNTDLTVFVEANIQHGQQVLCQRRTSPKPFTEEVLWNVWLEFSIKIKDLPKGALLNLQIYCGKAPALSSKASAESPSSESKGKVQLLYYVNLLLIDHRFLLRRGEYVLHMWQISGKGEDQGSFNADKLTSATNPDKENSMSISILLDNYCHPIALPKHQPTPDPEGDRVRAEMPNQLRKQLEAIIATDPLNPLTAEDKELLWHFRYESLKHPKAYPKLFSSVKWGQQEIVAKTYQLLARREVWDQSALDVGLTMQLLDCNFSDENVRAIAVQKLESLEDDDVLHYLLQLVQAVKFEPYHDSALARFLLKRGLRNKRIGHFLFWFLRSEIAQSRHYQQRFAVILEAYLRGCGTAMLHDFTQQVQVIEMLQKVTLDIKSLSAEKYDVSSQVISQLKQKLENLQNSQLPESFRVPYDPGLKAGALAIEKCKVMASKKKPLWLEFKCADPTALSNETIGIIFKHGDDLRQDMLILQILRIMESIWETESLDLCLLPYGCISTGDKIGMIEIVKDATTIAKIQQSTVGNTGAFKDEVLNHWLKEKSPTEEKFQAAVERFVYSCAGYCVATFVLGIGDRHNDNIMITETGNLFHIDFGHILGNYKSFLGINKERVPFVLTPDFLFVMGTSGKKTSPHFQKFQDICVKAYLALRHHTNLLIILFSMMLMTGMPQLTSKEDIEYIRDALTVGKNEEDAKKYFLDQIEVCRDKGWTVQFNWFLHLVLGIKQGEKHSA
Procedure: as §1, §2, §4

[1] = Enzymatic Data, read-out: PI3K alfa IC50 [umol]

SMILES	IC50 (PI3K alfa; read-out: IC50 (μm) PI3K-alfa)	other results
Nc1ncc(-c2ccc3ncc(-c4ccc(OCCn5cccn5)cc4)n3n2)cc1C(F)(F)F [Example 88, 5-{3-[4-(2-Pyrazol-1-yl-ethoxy)-phenyl]-imidazo[1,2-b]pyridazin-6-yl}-3-trifluoro-methyl-pyridin-2-ylamine]	–	IC50 (PI3K alfa; [1]): 128 nM; IC50 (PI3K delta): 148 nM; IC50 (PI3K beta): 993 nM; IC50 (PI3K gamma): 2430 nM
CCS(=O)(=O)c1ccc(-c2cnc3ccc(-c4cnc(N)c(C(F)(F)F)c4)nn23)cc1 [Example 33, 5-[3-(4-Ethanesulfonyl-phenyl)-imidazo[1,2-b]pyridazin-6-yl]-3-trifluoro-methyl-pyridin-2-ylamine]	–	IC50 (PI3K alfa; [1]): 63 nM; IC50 (PI3K delta): 103 nM; IC50 (PI3K beta): 240 nM; IC50 (PI3K gamma): 1220 nM
NC(=O)c1ccc(-c2ccc3ncc(-c4cnc(N)c(C(F)(F)F)c4)n3n2)cc1 [Example 11, 4-[3-(6-Amino-5-trifluoromethyl-pyridin-3-yl)-imidazo[1,2-b]pyridazin-6-yl]-benzamide]	372 nM	–
COc1cc(-c2ccc3ncc(-c4cnc(N)c(C(F)(F)F)c4)n3n2)ccc1OCCCN [Example 14, 5-{6-[4-(3-Amino-propoxy)-3-methoxy-phenyl]-imidazo[1,2-b]pyridazin-3-yl}-3-trifluoromethyl-pyridin-2-ylamine]	39 nM	–
Nc1ncc(-c2cnc3ccc(-c4cnc(N)c(C(F)(F)F)c4)nn23)cn1 [Example 79, 5-[6-(6-Amino-5-trifluoro-methyl-pyridin-3-yl)-imidazo [1,2-b]pyridazin-3-yl]-pyrimidin-2-ylamine]	–	IC50 (PI3K alfa; [1]): 15 nM; IC50 (PI3K delta): 9 nM; IC50 (PI3K beta): 4 nM
NC(=O)c1ccc(-c2ccc3ncc(-c4ccc(C(N)=O)cc4)n3n2)cc1 [Example 7, 4-[3-(4-Carbamoylphenyl)-imidazo[1,2-b]pyridazin-6-yl]-benzamide]	14 nM	–
CC(C)(C)OC(=O)NCCCOc1ccc(-c2ccc3ncc(-c4cnc(N)c(C(F)(F)F)c4)n3n2)cc1OC(F)(F)F [Example 55]	–	IC50 (PI3K alfa; [1]): 6120 nM; IC50 (PI3K delta): > 9100 nM; IC50 (PI3K beta): > 9100 nM
CC(C)N1CCC(Oc2ccc(-c3cnc4ccc(-c5cnc(N)c(C(F)(F)F)c5)nn34)cn2)CC1 [Example 29, 5-{3-[6-(1-Isopropyl-piperidin-4-yloxy)-pyridin-3-yl]-imidazo[1,2-b]pyridazin-6-yl}-3-trifluoromethyl-pyridin-2-ylamine]	7 nM	–
COc1cc(-c2ccc3ncc(-c4cnc(N)c(C(F)(F)F)c4)n3n2)ccc1OCCCNC(=O)OC(C)(C)C [Example 10, (3-{4-[3-(6-Amino-5-trifluoromethyl-pyridin-3-yl)-imidazo[1,2-b]pyridazin-6-yl]-2-methoxy-phenoxy}-propyl)-carbamic acid tert-butyl ester]	118 nM	–
Nc1ncc(-c2ccc3ncc(-c4cnc(N)c(C(F)(F)F)c4)n3n2)cc1C(F)(F)F [Example 6]	3 nM	–
Nc1ncc(-c2ccc3ncc(-c4ccc(F)nc4)n3n2)cc1C(F)(F)F [Example 27, 5-[3-(6-Fluoro-pyridin-3-yl)-imidazo[1,2-b]pyridazin-6-yl]-3-trifluoromethyl-pyridin-2-ylamine]	1.4 nM	–
COc1ccc(-c2ccc3ncc(-c4ccc(S(C)(=O)=O)cc4)n3n2)cc1OC [Example 5, 6-(3,4-Dimethoxy-phenyl)-3-(4-methanesulfonyl-phenyl)-imidazo[1,2-b]pyridazine]	1.64 nM	–
CCOC(=O)c1cc(-c2ccc3ncc(-c4ccc(OC)c(OC)c4)n3n2)ccc1OC [Example 8, 5-[3-(3,4-Dimethoxy-phenyl)-imidazo[1,2-b]pyridazin-6-yl]-2-methoxy-benzoic acid ethyl ester]	6 nM	–
Nc1ncc(-c2ccc3ncc(-c4ccc(Nc5nc(-c6ccccc6)cs5)nc4)n3n2)cc1C(F)(F)F [Example 28, 5-{3-[6-(4-Phenyl-thiazol-2-ylamino)-pyridin-3-yl]-imidazo[1,2-b]pyridazin-6-yl}-3-trifluoromethyl-pyridin-2-ylamine]	12 nM	–

Continued, in another order:

IC50 (PI3K alfa; read-out: IC50 (μm) PI3K-alfa)	SMILES	other results
120 nM	COc1ccc(-c2ccc3ncc(-c4ccc(-c5ccoc5)cc4)n3n2)cc1OC [Example 19, 6-(3,4-Dimethoxy-phenyl)-3-(4-furan-3-yl-phenyl)-imidazo[1,2-b]pyridazine]	–
854 nM	COc1ccccc1-c1ccc2ncc(-c3ccc(C(N)=O)cc3)n2n1 [Example 9, 4-[6-(2-Methoxy-phenyl)-imidazo[1,2-b]pyridazin-3-yl]-benzamide]	–
4.9 nM	Nc1ncc(-c2ccc3ncc(-c4ccc(O)nc4)n3n2)cc1C(F)(F)F [Example 32, 5-[6-(6-Amino-5-trifluoromethyl-pyridin-3-yl)-imidazo[1,2-b]pyridazin-3-yl]-pyridin-2-ol]	–
4.5 nM	Nc1ncc(-c2ccc3ncc(-c4ccc(N5CCOCC5)nc4)n3n2)cc1C(F)(F)F [Example 31, 5-[3-(6-Morpholin-4-yl-pyridin-3-yl)-imidazo[1,2-b]pyridazin-6-yl]-3-trifluoromethyl-pyridin-2-ylamine]	–
292 nM	COc1cc(-c2cnc3ccc(-c4ccc(C(N)=O)cc4)nn23)ccc1OCCCNC(=O)OC(C)(C)C [Example 21, (3-{4-[6-(4-Carbamoyl-phenyl)-imidazo[1,2-b]pyridazin-3-yl]-2-methoxy-phenoxy}-propyl)-carbamic acid tert-butyl ester]	–
2.3 nM	Nc1ncc(-c2ccc3ncc(-c4ccc(NCc5ccccc5)nc4)n3n2)cc1C(F)(F)F [Example 30, 5-[3-(6-Benzylamino-pyridin-3-yl)-imidazo[1,2-b]pyridazin-6-yl]-3-trifluoro-methyl-pyridin-2-ylamine]	–
122 nM	COc1ccc(-c2ccc3ncc(-c4ccc(-c5ccc[nH]5)cc4)n3n2)cc1OC [Example 20, 6-(3,4-Dimethoxy-phenyl)-3-[4-(1H-pyrrol-2-yl)-phenyl]-imidazo[1,2-b]pyridazine]	–
3 nM	COc1ccc(-c2ccc3ncc(-c4ccc(OC)c(OC)c4)n3n2)cc1OC [Example 1, 3,6-Bis-(3,4-dimethoxy-phenyl)-imidazo[1,2-b]pyridazine]	–
53 nM	COc1cc(-c2ccc3ncc(-c4ccc(C(N)=O)cc4)n3n2)ccc1OCCCN [Example 17, 4-{6-[4-(3-Amino-propoxy)-3-methoxy-phenyl]-imidazo[1,2-b]pyridazin-3-yl}-benzamide]	–
9.5 nM	CS(=O)(=O)c1ccc(-c2cnc3ccc(-c4cnc(N)c(C(F)(F)F)c4)nn23)cc1 [Example 18, 5-[3-(4-Methanesulfonyl-phenyl)-imidazo[1,2-b]pyridazin-6-yl]-3-trifluoro-methyl-pyridin-2-ylamine]	–
135 nM	COc1ccc(-c2cnc3ccc(-c4ccc(OCCO)c(C(C)=O)c4)nn23)cc1OC [Example 16, 1-[5-[3-(3,4-Dimethoxy-phenyl)-imidazo[1,2-b]pyridazin-6-yl]-2-(2-hydroxy-ethoxy)-phenyl]-ethanone]	–
